Measurements: patent US5521173A, “Tricyclic benzazepine vasopressin antagonists” (American Home Products Corporation, priority 1995, dated 1996)

Tests used:
[1] = target: T1, Human V2 Vasopressin Receptor (Homo sapiens, UniProt P30518); assay: Binding to Membranes of Mouse Fibroblast Cell Line (LV-2) Transfected with the cDNA Expressing the Human V2 Vasopressin Receptor; conditions: ** LV-2 cell membranes
T1 construct: expressed in transfected cells; host or cells: mouse fibroblast cell line LV-2
Procedure: (a) Membrane Preparation Flasks of 175 ml capacity, containing attached cells grown to confluence, are cleared of culture medium by aspiration. […] The content of all flasks is poured into a centrifuge tube and the cells pelleted at 300× g for 15 min. The Hank's based solution is aspirated off and the cells homogenized with a polytron at setting #6 for 10 sec in 10.0 mM Tris.HCl buffer, pH 7.4 containing 0.25M sucrose and 1.0 mM EDTA. The homogenate is centrifuged at 1500× g for 10 min to remove ghost membranes. The supernatant fluid is centrifuged at 100,000× g for 60 min to pellet the receptor protein. […] (b) Receptor Binding […] Non specific binding is assessed in the presence of 1.0 μM of unlabeled ligand, added in 20 μl volume. […] The radioactivity trapped on the filter disk by the ligand-receptor complex is assessed by liquid scintillation counting in a Packard LS Counter, with an efficiency of 65% for tritium. The data are analyzed for IC50 values by the LUNDON-2 program for competition (LUNDON SOFTWARE, Ohio).

[2] = test system: Vasopressin V2; assay: Vasopressin V2 Antagonist Activity in Conscious Hydrated Rats; type: in vivo, rat; conditions: 10 mg/kg orally, AVP 0.4 μg/kg i.p.; for Osmolality: urine
Procedure: Two to four rats are used for each compound. One hour later, arginine vasopressin (AVP, antidiuretic hormore, ADH) dissolved in peanut oil is administered at 0.4 μg/kg intraperitoneally. Two rats in each test would not receive arginine vasopressin but only the vehicle (peanut oil) to serve as water-loading control. Twenty minutes later each rat is given 30 mL/kg of deionized water orally by gavage and is placed individually in a metabolic cage equipped with a funnel and a graduated glass cylinder to collect urine for four hours. Urine volume is measured and osmolality analyzed by use of a Fiske One-Ten osmometer (Fiske Assoc., Norwood, Mass., USA). Urinary sodium, potassium, and chloride are analyzed by use of ion-specific electrodes in a Beckman E3 (Electrolyte 3) Analyzer. In the following results, […] and decreased osmolality relative to AVP-control indicates activity.

[3] = target: T2, Vasopressin V1 receptor subtype in Human Platelet Membranes (Homo sapiens, UniProt P37288); assay: Binding to Vasopressin V1 receptor subtype in Human Platelet Membranes
T2 construct: tissue Hudson Valley Blood Services, Westchester Medical Center, Valhalla, N.Y; host or cells: human platelets (frozen platelet rich plasma)
Procedure: Radioligand Binding Experiments with Human Platelet Membranes
(a) Platelet Membrane Preparation
Frozen platelet rich plasma (PRP), (Platelet Source: Hudson Valley Blood Services, Westchester Medical Center, Valhalla, N.Y.) are thawed to room temperature. The tubes containing the PRP are centrifuged at 16,000×g for 10 min. at 4° C. and the supernatant fluid discarded. The platelets resuspended in an equal volume of 50.0 mM Tris.HCl, pH 7.5 containing 120 mM NaCl and 20.0 mM EDTA. The suspension is recentrifuged at 16,000× g for 10 min. This washing step is repeated one more time. The wash discarded and the lysed pellets homogenized in low ionic strength buffer of Tris.HCl, 5.0 mM, pH 7.5 containing 5.0 mM EDTA. The homogenate is centrifuged at 39,000× g for 10 min. The resulting pellet is resuspended in Tris.HCl buffer, 70.0 mM, pH 7.5 and recentrifuged at 39,000× g for 10 min. The final pellet is resuspended in 50.0 mM Tris.HCl buffer pH 7.4 containing 120 mM NaCl and 5.0 mM KCl to give 1.0-2.0 mg protein per ml of suspension.
(b) Binding to Vasopressin V1 receptor subtype in Human Platelet Membranes
In wells of a 96 well format microtiter plate, add 100 μl of 50.0 mM Tris.HCl buffer containing 0.2% BSA and a mixture of protease inhibitors (aprotinin, leupeptin etc.). Then add 20 μl of [^3 H]Ligand (Manning or Arg^8 Vasopressin), to give final concentrations ranging from 0.01 to 10.0 nM. Initiate the binding by adding 80.0 μl of platelet suspension (approx. 100 μg protein). Mix all reagents by pipetting the mixture up and down a few times. Non specific binding is measured in the presence of 1.0 µM of unlabeled ligand (Manning or Arg^8 Vasopressin). Let the mixture stand undisturbed at room temperature for ninety (90) min. Upon this time, rapidly filter off the incubate under vacuum suction over GF/B filters, using a Brandel Harvester. Determine the radioactivity caught on the filter disks by the addition of liquid scintillant and counting in a liquid scintillator.

[4] = target: T3, oxytocin receptors (Rattus norvegicus, UniProt P70536); assay: Oxytocin Receptor Binding; design: species or system rat (female Sprague-Dawley); conditions: for IC50: 1.0 nM [3H]OT
T3 construct: The uteri are dissected out, cleaned of fat and connective tissues; from tissue; host or cells: uteri of DES-treated female Sprague-Dawley rats
T3 sequence (P70536 1-388): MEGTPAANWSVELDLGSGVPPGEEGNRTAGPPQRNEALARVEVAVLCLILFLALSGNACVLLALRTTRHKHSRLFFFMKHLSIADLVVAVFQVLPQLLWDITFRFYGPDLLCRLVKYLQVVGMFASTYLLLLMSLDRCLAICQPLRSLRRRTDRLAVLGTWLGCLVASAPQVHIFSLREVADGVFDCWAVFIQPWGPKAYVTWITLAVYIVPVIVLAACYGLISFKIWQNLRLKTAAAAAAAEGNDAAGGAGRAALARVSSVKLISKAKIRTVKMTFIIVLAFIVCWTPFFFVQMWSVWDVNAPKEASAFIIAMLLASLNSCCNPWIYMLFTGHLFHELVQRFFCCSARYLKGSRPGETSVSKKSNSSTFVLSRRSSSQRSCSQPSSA
Procedure: Oxytocin Receptor Binding
Female Sprague-Dawley rats weighing approximately 200-250 g are injected intramuscularly (i.m.) with 0.3 mg/kg of body weight of diethylstilbestrol (DES). The rats are sacrificed 18 hours later under pentobarbital anesthesia. The uteri are dissected out, cleaned of fat and connective tissues and rinsed in 50 ml of normal saline. The tissue pooled from six rats is homogenized in 50 ml of […] Tris.HCl, containing 0.5 mM dithiothreitol and 1.0 mM EDTA, adjusted to pH 7.4, using a polytron at setting 6 with three passes of 10 sec each. The homogenate is passed through two (2) layers of cheesecloth and the filtrate centrifuged at 1000× g for 10 min. The clear supernatant is removed and recentrifuged at 165,000× g for 30 min. The resulting pellet containing the oxytocin receptors is resuspended in 50.0 mM Tris.HCl containing 5.0 mM MgCl2 at pH 7.4, to give a protein concentration of 2.5 mg/ml of tissue suspension. This preparation is used in subsequent binding assays with [^3 H]Oxytocin.
Binding of 3,5-[^3 H]Oxytocin ([^3 H]OT) to its receptors is done in microtiter plates using [^3 H]OT, at various concentrations, in an assay buffer of 50.0 mM Tris.HCl, pH 7.4 and containing 5.0 mM MgCl2, and a mixture of protease inhibitors: BSA, 0.1 mg; aprotinin, 1.0 mg; 1,10-phenanthroline, 2.0 mg; […], 10.0 mg; and PMSF, 0.3 mg per 100 ml of buffer solution. Non-specific binding is determined in the presence of 1.0 uM unlabeled OT. The binding reaction is terminated after 60 min., at 22° C., by rapid filtration through glass fiber filters using a Brandel, cell harvester (Biomedical Research and Development Laboratories,Inc., Gaithersburg, Md.). Competition experiments are conducted at equilibrium using 1.0 nM [^3 H]OT and varying the concentration of the displacing agents. The concentrations of agent displacing 50% of [^3 H]OT at its sites (IC50) are calculated by a computer assisted LUNDON-2 program (LUNDON SOFTWARE INC., Ohio, USA).

T2 sequence (P37288 whole entry): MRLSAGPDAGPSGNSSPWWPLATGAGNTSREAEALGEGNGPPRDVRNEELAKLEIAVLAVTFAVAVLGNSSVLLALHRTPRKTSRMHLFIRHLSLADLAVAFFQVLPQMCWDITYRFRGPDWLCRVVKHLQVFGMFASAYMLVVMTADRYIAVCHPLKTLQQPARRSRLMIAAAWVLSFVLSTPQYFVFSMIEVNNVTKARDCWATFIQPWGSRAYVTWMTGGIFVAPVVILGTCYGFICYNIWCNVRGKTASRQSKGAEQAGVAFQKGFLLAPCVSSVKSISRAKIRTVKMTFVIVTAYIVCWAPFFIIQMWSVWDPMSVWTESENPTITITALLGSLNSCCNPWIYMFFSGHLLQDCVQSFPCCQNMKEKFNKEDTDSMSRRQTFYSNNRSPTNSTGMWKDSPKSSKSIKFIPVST
T1 sequence (P30518 whole entry): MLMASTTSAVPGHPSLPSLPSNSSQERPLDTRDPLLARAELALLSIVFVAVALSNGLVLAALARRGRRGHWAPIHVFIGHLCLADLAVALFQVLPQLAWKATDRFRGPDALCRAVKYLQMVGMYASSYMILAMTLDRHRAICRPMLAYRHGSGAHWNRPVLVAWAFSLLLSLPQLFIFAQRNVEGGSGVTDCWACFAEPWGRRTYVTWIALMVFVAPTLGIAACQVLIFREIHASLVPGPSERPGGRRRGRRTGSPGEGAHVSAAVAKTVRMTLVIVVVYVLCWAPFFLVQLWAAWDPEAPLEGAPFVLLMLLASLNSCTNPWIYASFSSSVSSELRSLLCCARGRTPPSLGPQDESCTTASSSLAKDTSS

| IC50 [1] [nM] | IC50 [3] [nM] | inhibition at 10 µM [4] [%] | IC50 [4] [nM] | SMILES | Urine Volume [2] [ml/4 hrs] | Osmolality [2] [mOsm/kg] |
| --- | --- | --- | --- | --- | --- | --- |
| 2000 | 88 | – | – | Cc1ccccc1-c1ccc(C(=O)N2Cc3cccn3Cc3ccccc32)cc1 [Example 5, 10,11-Dihydro-10-[4-(2-methylphenyl)benzoyl]-5H-pyrrolo[2,1-c][1,4]benzodiazepine] | 7.8 | 992 |
| 3600 | 960 | 98 | 480 | O=C(c1ccc(-c2cccs2)nc1)N1Cc2cccn2Cc2ccccc21 [Example 22] | – | – |
| 58 | 12 | 68 | – | CCCc1ccc(-c2ccc(C(=O)N3Cc4cccn4Cc4ccccc43)cc2)cc1 [Example 21, 10,11-Dihydro-10-[(4'-propyl[1,1'-biphenyl]-4-yl)carbonyl]-5H-pyrrolo[2,1-c][1,4]benzodiazepine] | 4.5 | 1347 |
| 96 | 64 | 100 | 49 ± 3 | O=C(c1ccc(-c2ccccc2[N+](=O)[O-])cc1)N1Cc2cccn2Cc2ccccc21 [Example 2, 10,11-Dihydro-10-[4-(2-nitrophenyl)benzoyl]-5H-pyrrolo[2,1-c][1,4]benzodiazepine] | 5.5 | 1257 |
| 510 | 13 | – | – | O=C(c1ccc(-c2cccs2)cc1)N1Cc2cccn2Cc2ccccc21 [drawing 73] | – | – |
| 15000 | 63 | 100 | 330 | CN(C)Cc1ccc2n1Cc1ccccc1N(C(=O)c1ccc(-c3cccs3)cc1)C2 [Example 6, 10,11-Dihydro-3-[(dimethylamino)methyl]-10-[4-(2-thienyl)benzoyl]-5H-pyrrolo[2,1-c][1,4]benzodiazepine] | – | – |
